Measured values: PubChem BioAssay (NCI)
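Method: 48-hour compound exposure of cells in 96-well plates, five concentrations, linear interpolation of endpoints. TGI marks complete inhibition of growth.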

Key:
Assay in all cases: NCI tumour cell line growth inhibition, 48 h
786-0 renal = tested on: 786-0 renal
A498 renal = tested on: A498 renal
A549 NSCLC = tested on: A549 NSCLC
ACHN renal = tested on: ACHN renal
BT-549 breast = tested on: BT-549 breast
CAKI-1 renal = tested on: CAKI-1 renal
CCRF-CEM leukemia = tested on: CCRF-CEM leukemia
COLO 205 colon = tested on: COLO 205 colon
DU-145 prostate = tested on: DU-145 prostate
EKVX NSCLC = tested on: EKVX NSCLC
HCC-2998 colon = tested on: HCC-2998 colon
HCT-116 colon = tested on: HCT-116 colon
HCT-15 colon = tested on: HCT-15 colon
HL-60(TB) leukemia = tested on: HL-60(TB) leukemia
HOP-62 NSCLC = tested on: HOP-62 NSCLC
HOP-92 NSCLC = tested on: HOP-92 NSCLC
HS 578T breast = tested on: HS 578T breast
HT29 colon = tested on: HT29 colon
IGROV1 ovarian = tested on: IGROV1 ovarian
K-562 leukemia = tested on: K-562 leukemia
KM12 colon = tested on: KM12 colon
LOX IMVI melanoma = tested on: LOX IMVI melanoma
M14 melanoma = tested on: M14 melanoma
MALME-3M melanoma = tested on: MALME-3M melanoma
MCF7 breast = tested on: MCF7 breast
MDA-MB-231 breast = tested on: MDA-MB-231 breast
MDA-MB-435 = tested on: MDA-MB-435
MDA-N = tested on: MDA-N
MOLT-4 leukemia = tested on: MOLT-4 leukemia
NCI-H226 lung = tested on: NCI-H226 lung
NCI-H23 lung = tested on: NCI-H23 lung
NCI-H460 lung = tested on: NCI-H460 lung
NCI-H522 lung = tested on: NCI-H522 lung
OVCAR-3 ovarian = tested on: OVCAR-3 ovarian
OVCAR-4 ovarian = tested on: OVCAR-4 ovarian
OVCAR-5 ovarian = tested on: OVCAR-5 ovarian
OVCAR-8 ovarian = tested on: OVCAR-8 ovarian
PC-3 prostate = tested on: PC-3 prostate
RPMI-8226 leukemia = tested on: RPMI-8226 leukemia
RXF 393 renal = tested on: RXF 393 renal
SF-268 CNS = tested on: SF-268 CNS
SF-295 CNS = tested on: SF-295 CNS
SF-539 CNS = tested on: SF-539 CNS
SK-MEL-2 melanoma = tested on: SK-MEL-2 melanoma
SK-MEL-28 melanoma = tested on: SK-MEL-28 melanoma
SK-MEL-5 melanoma = tested on: SK-MEL-5 melanoma
SK-OV-3 ovarian = tested on: SK-OV-3 ovarian
SN12C renal = tested on: SN12C renal
SNB-19 CNS = tested on: SNB-19 CNS
SNB-75 CNS = tested on: SNB-75 CNS
SR leukemia = tested on: SR leukemia
SW-620 colon = tested on: SW-620 colon
T-47D breast = tested on: T-47D breast
TK-10 renal = tested on: TK-10 renal
U251 CNS = tested on: U251 CNS
UACC-257 melanoma = tested on: UACC-257 melanoma
UACC-62 melanoma = tested on: UACC-62 melanoma
UO-31 renal = tested on: UO-31 renal
NCI/ADR-RES ovarian = tested on: NCI/ADR-RES ovarian

Measured: TGI

COc1cc(-c2[o+]c3cc(O)cc(OC4OC(CO)C(O)C(O)C4O)c3cc2OC2OC(CO)C(O)C(O)C2O)cc(OC)c1O (stereo not given)
> 100 µM: 786-0 renal | A498 renal | A549 NSCLC | ACHN renal | BT-549 breast | CAKI-1 renal | CCRF-CEM leukemia | COLO 205 colon | DU-145 prostate | EKVX NSCLC | HCC-2998 colon | HCT-116 colon | HCT-15 colon | HL-60(TB) leukemia | HOP-62 NSCLC | HOP-92 NSCLC | HS 578T breast | HT29 colon | IGROV1 ovarian | K-562 leukemia | KM12 colon | LOX IMVI melanoma | M14 melanoma | MALME-3M melanoma | MCF7 breast | MDA-MB-231 breast | MDA-MB-435 | MDA-N | MOLT-4 leukemia | NCI-H226 lung | NCI-H23 lung | NCI-H460 lung | NCI-H522 lung | OVCAR-3 ovarian | OVCAR-4 ovarian | OVCAR-5 ovarian | OVCAR-8 ovarian | PC-3 prostate | RPMI-8226 leukemia | RXF 393 renal | SF-268 CNS | SF-295 CNS | SF-539 CNS | SK-MEL-2 melanoma | SK-MEL-28 melanoma | SK-MEL-5 melanoma | SK-OV-3 ovarian | SN12C renal | SNB-19 CNS | SNB-75 CNS | SR leukemia | SW-620 colon | T-47D breast | TK-10 renal | U251 CNS | UACC-257 melanoma | UACC-62 melanoma | UO-31 renal

CC1(C)CC(=O)C(=CN2C(=O)CNC2=S)C(=O)C1
> 100 µM: 786-0 renal | A549 NSCLC | ACHN renal | BT-549 breast | CAKI-1 renal | CCRF-CEM leukemia | COLO 205 colon | DU-145 prostate | EKVX NSCLC | HCC-2998 colon | HCT-116 colon | HCT-15 colon | HL-60(TB) leukemia | HOP-62 NSCLC | HOP-92 NSCLC | HS 578T breast | IGROV1 ovarian | KM12 colon | M14 melanoma | MCF7 breast | MDA-MB-231 breast | MDA-MB-435 | MDA-N | MOLT-4 leukemia | NCI-H226 lung | NCI-H23 lung | NCI-H460 lung | NCI-H522 lung | NCI/ADR-RES ovarian | OVCAR-3 ovarian | OVCAR-4 ovarian | OVCAR-5 ovarian | OVCAR-8 ovarian | PC-3 prostate | RXF 393 renal | SF-268 CNS | SF-295 CNS | SF-539 CNS | SK-MEL-2 melanoma | SK-MEL-5 melanoma | SK-OV-3 ovarian | SN12C renal | SNB-19 CNS | SNB-75 CNS | SW-620 colon | TK-10 renal | U251 CNS | UACC-257 melanoma | UACC-62 melanoma | UO-31 renal

C/C(=C\c1ccccc1)C(=O)NCc1ccc(C(=O)NCCc2c[nH]c3ccccc23)cc1
53.7 µM: UACC-62 melanoma
78.2 µM: UACC-257 melanoma
> 100 µM: 786-0 renal | A498 renal | A549 NSCLC | ACHN renal | BT-549 breast | CAKI-1 renal | CCRF-CEM leukemia | COLO 205 colon | DU-145 prostate | EKVX NSCLC | HCT-116 colon | HCT-15 colon | HOP-62 NSCLC | HOP-92 NSCLC | HT29 colon | IGROV1 ovarian | K-562 leukemia | KM12 colon | LOX IMVI melanoma | M14 melanoma | MALME-3M melanoma | MCF7 breast | MDA-MB-231 breast | MDA-MB-435 | MDA-N | MOLT-4 leukemia | NCI-H226 lung | NCI-H23 lung | NCI-H460 lung | NCI-H522 lung | NCI/ADR-RES ovarian | OVCAR-3 ovarian | OVCAR-4 ovarian | OVCAR-5 ovarian | OVCAR-8 ovarian | PC-3 prostate | RPMI-8226 leukemia | RXF 393 renal | SF-268 CNS | SF-295 CNS | SF-539 CNS | SK-MEL-2 melanoma | SK-MEL-28 melanoma | SK-MEL-5 melanoma | SK-OV-3 ovarian | SN12C renal | SNB-19 CNS | SNB-75 CNS | SR leukemia | SW-620 colon | T-47D breast | TK-10 renal | U251 CNS | UO-31 renal
96.3 µM: HCC-2998 colon
